Experimental data published in PMC5620994, “Halogenation of glycopeptide antibiotics occurs at the amino acid level during non-ribosomal peptide synthesis” (Chemical Science, 2017).

Experiments:
[1] = target: T1, Tcp21 (halogenase from the teicoplanin system) (Actinoplanes teichomyceticus, UniProt Q70AY7); assay: purified as FAD-bound form; assay type: binding; conditions: FAD co-purified with the enzyme
T1 construct: synthetic codon-optimised gene, selected range 16-506, pET-28(a) via NdeI/HindIII, His-tagged, expressed in E. coli
T1 sequence (Q70AY7 16-506): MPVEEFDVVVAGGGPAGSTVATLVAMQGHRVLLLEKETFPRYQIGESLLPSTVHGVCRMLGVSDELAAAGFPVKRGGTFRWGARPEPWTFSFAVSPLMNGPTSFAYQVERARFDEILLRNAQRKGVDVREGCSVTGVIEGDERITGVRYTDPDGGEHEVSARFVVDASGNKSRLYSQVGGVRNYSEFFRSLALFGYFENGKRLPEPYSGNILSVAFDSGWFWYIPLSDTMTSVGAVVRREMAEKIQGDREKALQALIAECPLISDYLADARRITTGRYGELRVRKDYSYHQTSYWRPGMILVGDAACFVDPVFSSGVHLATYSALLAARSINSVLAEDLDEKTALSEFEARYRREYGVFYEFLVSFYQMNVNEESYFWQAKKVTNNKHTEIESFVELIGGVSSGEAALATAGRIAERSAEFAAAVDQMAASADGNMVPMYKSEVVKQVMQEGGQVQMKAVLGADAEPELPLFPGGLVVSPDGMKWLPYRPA

[2] = target: T2, BhaA (balhimycin halogenase) (Amycolatopsis balhimycina, UniProt O87676); assay: purified as FAD-bound form; assay type: binding; conditions: FAD co-purified with the enzyme
T2 construct: overproduced in Pseudomonas fluorescens BL915 deltaORF1-4 from shuttle vector pCIBhis (His tag)
T2 sequence (O87676 entry or part of it): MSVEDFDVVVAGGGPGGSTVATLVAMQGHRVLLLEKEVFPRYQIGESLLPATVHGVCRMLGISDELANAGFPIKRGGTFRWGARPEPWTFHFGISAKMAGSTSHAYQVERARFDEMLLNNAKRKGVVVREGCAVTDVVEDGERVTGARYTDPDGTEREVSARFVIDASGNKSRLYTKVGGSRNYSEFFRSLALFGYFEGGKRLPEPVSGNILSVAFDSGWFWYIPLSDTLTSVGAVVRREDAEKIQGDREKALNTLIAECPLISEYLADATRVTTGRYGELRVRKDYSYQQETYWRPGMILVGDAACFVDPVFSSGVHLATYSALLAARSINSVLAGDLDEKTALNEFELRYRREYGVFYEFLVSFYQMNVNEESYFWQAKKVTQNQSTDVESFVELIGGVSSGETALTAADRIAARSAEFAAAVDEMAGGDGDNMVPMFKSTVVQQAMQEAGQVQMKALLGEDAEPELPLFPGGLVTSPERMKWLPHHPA

In the case of `Cc1cc2nc3c(=O)[nH]c(=O)nc-3n(C[C@H](O)[C@H](O)[C@H](O)COP(=O)(O)OP(=O)(O)OC[C@H]3O[C@@H](n4cnc5c(N)ncnc54)[C@H](O)[C@@H]3O)c2cc1C` [FAD], the “purified as FAD-bound form” value [1] is reported as “Both enzymes could be overproduced and purified in an FAD-bound form as anticipated” and the “purified as FAD-bound form” value [2] is reported as “Both enzymes could be overproduced and purified in an FAD-bound form as anticipated”.
